Data as given in US20240239813A1, “KRAS INHIBITORS AND PHARMACEUTICAL USES THEREOF” (RISEN (SUZHOU) PHARMA TECH CO., LTD., priority 2022, published 2024).

Tests used:
MKN-1 = test: Cell proliferation assay (CellTiterGlo), MKN-1; format: cell-based; details: Homo sapiens, MKN-1, 72 hours
Method: (§1) A cell proliferation assay was used to evaluate inhibition by exemplary compounds. Proliferation assays used human tissue derived cancer cell lines, for example, AsPC-1 (Cobioer, CBP60546), GP2D (Cobioer, CBP60683), NCI-H358 (Cobioer, CBP60544), NCI-H727 (Cobioer, CBP60182), MKN-1 (Cobioer, CBP60486), HCT116 (ATCC, CCL-247), and HT-29 (Cobioer, CBP60011). Signal reflecting cell proliferation was detected with the CellTiterGlo kit (Promega, G7573).
(§2) Cells were cultured in the growth phase and 3×10^3 cells per well were plated in a 96-well plate (Greiner, 655090). Cells were incubated 24 hours at 37° C. and 5% carbon dioxide in a humidity chamber. Serially diluted exemplary compounds were added to the plate which was then incubated for another 72 hours. Plates were brought to room temperature and an equal volume of CellTiterGlo reagent was added. After 10 minutes incubation at room temperature to stabilize the signal, the luminescent signal was measured on the VICTOR Nivo multimode plate reader according to the manufacturer's instructions. The signal was converted to percent inhibition using the following formula: […]
(§3) (where the “Maximum Signal” are wells containing DMSO without inhibitor; the “Minimum Signal” are signal of wells recorded at Day 0 prior to commencement of the experiment; the “Test compound signal” are wells containing inhibitor at established concentrations).
(§4) IC50 was determined by fitting percent inhibition at each inhibitor concentration to the four-parameter nonlinear logistic equation using GraphPad Prism. IC50 (nM) values of selected compounds are depicted in Table 4. “-”: means without measuring; and “ND” means not detected.

NCI-H358 = test: Cell proliferation assay (CellTiterGlo), NCI-H358; format: cell-based; details: Homo sapiens, NCI-H358, 72 hours
Method: as §1, §2, §3, §4

GP2D = test: Cell proliferation assay (CellTiterGlo), GP2D; format: cell-based; details: Homo sapiens, 72 hours
Method: as §1, §2, §3, §4

[1] = target: His-tagged Human KRAS^G12D (Homo sapiens (Human), UniProt P01116, G12D); test: HTRF KRAS G12D GTP binding assay; details: displacement of GTP-Red tracer
His-tagged Human KRAS^G12D, sequence (P01116-2 other isoform, or with tags, fused parts or gaps G12D): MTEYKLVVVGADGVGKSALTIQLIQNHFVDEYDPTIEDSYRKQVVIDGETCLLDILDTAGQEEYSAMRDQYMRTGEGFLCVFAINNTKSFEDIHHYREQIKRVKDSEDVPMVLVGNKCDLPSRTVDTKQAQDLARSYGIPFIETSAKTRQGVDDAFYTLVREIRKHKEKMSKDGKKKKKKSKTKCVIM
Method: KRAS^G12D was used in this assay.
The ability of a test compound to bind to KRAS^G12D was measured by using an HTRF KRAS^G12D GTP Binding Kit (Cisbio, 63ADK000CB27PEG). […] 5 μL of compound solution was added to each well after serial dilution, followed by addition of 5 μL of GDP (50 nM) solution. After 30 minutes incubation at room temperature, 1×6His Eu cryptate antibody solution and GTP-Red tracer were added to the plate, then incubated for another 30 minutes. The HTRF signal was measured with a VICTOR Nivo multimode plate reader according to the manufacturer's instructions. The percent inhibition was calculated using the following formula: […]
(where the “Maximum Signal” are wells containing DMSO without inhibitor; the “Minimum Signal” are wells containing reference inhibitory component (GDP); the “Test compound signal” are wells containing test compound (inhibitor) at established concentrations).
IC50 was determined by fitting percent inhibition at each inhibitor concentration to the four-parameter nonlinear logistic equation using GraphPad Prism.

NCI-H727 = test: Cell proliferation assay (CellTiterGlo), NCI-H727; format: cell-based; details: Homo sapiens, NCI-H727, 72 hours
Method: as §1, §2, §3, §4

[2] = Microsomal stability assay, rat liver microsomes; format: in vitro ADME; details: SD, pooled rat liver microsomes, 0.5 mg/mL protein
Method: (§5) Test results from this assay were used to determine the metabolic liabilities of test compounds and allow focus on the improvement of drug candidates through structure-activity relationships. Pooled mouse/rat/human liver microsomes were used for this assay
(§6) In vitro mouse (CD-1, BioIVT)/rat (SD, RILD)/human (Corning) liver microsomal suspensions at 0.5 mg/mL protein and 1.3 mM NADPH, 3.3 mM MgCl2 were pre incubated at 37° C. for 3 mins prior to addition of 0.1 mM test compound solution to give a final incubation concentration of 1 μM. Samples were incubated for 0, 15, 30, 60 minutes at 37° C. on a shaker (the positive control substance was cultured for 0 or 60 minutes). At the end of each incubation time both incubated and control samples were quenched with ice-cold stop solution containing internal standard. All samples were mixed by a plate shaker at 800 rpm for 5 minutes, then centrifuged at 4100 rpm for 15 minutes at 4° C. to precipitate protein. Supernatant was transferred to another 96-well plate, dilution solution was added to each supernatant well, and then each bioanalysis plate was sealed. The samples were mixed by plate shaker at 800 rpm for 5 minutes and then centrifuged at 4° C., 4100 rpm for 5 minutes. All samples were stored at 4° C. before LC-MS/MS analysis.
(§7) The peak area ratio was converted to the remaining percentages (% Remaining) using the following formula: […]
(§8) where % Remaining is the compound ratio (compound peak area/internal standard peak area) as a percentage of the 0 minute time point.
(§9) The ln remaining percent of test articles were plotted against time and the gradient of the line determined; the gradient was converted to elimination rate constant by using the following formula:
(§10) Elimination rate constant(ke)=−gradient
(§11) Half time (T1/2) was determined using following formula: […]
(§12) Hepatic intrinsic clearance (CLint(liver)) was determined by using the following formulas: […]
(§13) The Intrinsic clearance of selected compounds is depicted in Table 6.

[3] = Microsomal stability assay, human liver microsomes; format: in vitro ADME; details: pooled human liver microsomes, 0.5 mg/mL protein
Method: as §5, §6, §7, §8, §9, §10, §11, §12, §13

[4] = Microsomal stability assay, mouse liver microsomes; format: in vitro ADME; details: CD-1, pooled mouse liver microsomes, 0.5 mg/mL protein
Method: as §5, §6, §7, §8, §9, §10, §11, §12, §13

AsPC-1 = test: Cell proliferation assay (CellTiterGlo), AsPC-1; format: cell-based; details: Homo sapiens, ASPC1, AsPC-1, 72 hours
Method: as §1, §2, §3, §4

HCT-116 = test: Cell proliferation assay (CellTiterGlo), HCT-116; format: cell-based; details: Homo sapiens, HCT-116, 72 hours
Method: as §1
(§14) Cells were cultured in the growth phase and 3×10^3 cells per well were plated in a 96-well plate (Greiner, 655090). Cells were incubated 24 hours at 37° C. and 5% carbon dioxide in a humidity chamber. […] After 10 minutes incubation at room temperature to stabilize the signal, the luminescent signal was measured on the VICTOR Nivo multimode plate reader according to the manufacturer's instructions. […]
as §3
(§15) IC50 was determined by fitting percent inhibition at each inhibitor concentration to the four-parameter nonlinear logistic equation using GraphPad Prism. […] “-”: means without measuring; and “ND” means not detected.

HT-29 = test: Cell proliferation assay (CellTiterGlo), HT-29; format: cell-based; details: Homo sapiens, HT-29, 72 hours
Method: as §1, §14, §3, §15

SMILES | IC50 (MKN-1) [nM] | IC50 (NCI-H358) [nM] | IC50 [1] [nM] | IC50 (NCI-H727) [nM] | CLint scaled at 1 μM [2] [mL/min/kg] | CLint scaled at 1 μM [3] [mL/min/kg] | CLint scaled at 1 μM [4] [mL/min/kg] | IC50 (AsPC-1) [nM] | IC50 (HCT-116) [nM] | IC50 (HT-29) [nM] | IC50 (GP2D) [nM]
CCc1c(F)ccc2cc(O)cc(-c3ncc4c(N5CC[C@@H](O)C5)nc(OC[C@@]56CCCN5C[C@H](F)C6)nc4c3F)c12 [Compound 1] | 4090 | 3210 | 261 | 1870 | – | – | – | – | – | – | 4220
CCc1c(F)ccc2cc(O)cc(-c3ncc4c(N5C[C@H](O)C[C@H]5CO)nc(OC[C@@]56CCCN5C[C@H](F)C6)nc4c3F)c12 [Compound 2] | > 10000 | 6320 | 185 | > 10000 | – | – | – | – | – | – | 1320
CCc1c(F)ccc2cc(O)cc(-c3ncc4c(N5CCC[C@H]5CO)nc(OC[C@@]56CCCN5C[C@H](F)C6)nc4c3F)c12 [Compound 3] | 1780 | 1660 | – | 1080 | – | – | – | – | – | – | 1570
CCc1c(F)ccc2cc(O)cc(-c3ncc4c(N5C[C@H](O)C[C@H]5C(=O)OC)nc(OC[C@@]56CCCN5C[C@H](F)C6)nc4c3F)c12 [Compound 4] | 7880 | 6600 | > 1000 | 4040 | – | – | – | – | – | – | 1630
CCc1c(F)ccc2cc(O)cc(-c3ncc4c(N5CCC[C@H]5C(N)=O)nc(OC[C@@]56CCCN5C[C@H](F)C6)nc4c3F)c12 [Compound 6] | > 10000 | > 10000 | 1390 | > 10000 | – | – | – | – | – | – | –
CCc1c(F)ccc2cc(O)cc(-c3ncc4c(N5CCC[C@H]5C(=O)OC)nc(OC[C@@]56CCCN5C[C@H](F)C6)nc4c3F)c12 [Compound 7] | > 10000 | 7980 | > 1000 | 5310 | – | – | – | – | – | – | –
CCc1c(F)ccc2cc(O)cc(-c3ncc4c(N5CCCC(C)(O)C5)nc(OC[C@@]56CCCN5C[C@H](F)C6)nc4c3F)c12 (stereo partly shown) [Compound A1, reference compound] | 144 | 152 | – | 130 | 111 | 46 | 1180 | 161 | 1430 | 7730 | 15.7

Continued, in another order:

IC50 (MKN-1) [nM] | IC50 (NCI-H358) [nM] | IC50 [1] [nM] | IC50 (NCI-H727) [nM] | CLint scaled at 1 μM [2] [mL/min/kg] | CLint scaled at 1 μM [3] [mL/min/kg] | CLint scaled at 1 μM [4] [mL/min/kg] | IC50 (AsPC-1) [nM] | IC50 (HCT-116) [nM] | IC50 (HT-29) [nM] | SMILES | IC50 (GP2D) [nM]
– | – | 18.8 | – | 887 | 402 | 2630 | – | – | – | CCc1c(F)ccc2cc(O)cc(-c3ncc4c(N5CCCC6(CCO6)C5)nc(OCC5(CN6CCOCC6)CC5)nc4c3F)c12 (stereo not shown) [Compound 2a] | –
– | 18.5 | 7.9 | 15 | – | – | – | 20.1 | – | – | CCc1c(F)ccc2cc(O)cc(-c3ncc4c(N5CCC[C@]6(CCO6)C5)nc(OCC5(CN6CCCCC6)CC5)nc4c3F)c12 [Compound 9a] | 1.6
– | 18.7 | 6.9 | 17 | 46.4 | 42.5 | 671 | 16 | – | – | CCc1c(F)ccc2cc(O)cc(-c3ncc4c(N5CCC[C@]6(CCO6)C5)nc(OCC5(CN6CCCC6)CC5)nc4c3F)c12 [Compound 10a] | 1.8
– | – | 19.6 | – | 52.9 | 31.8 | 371 | – | – | – | CCc1c(F)ccc2cc(O)cc(-c3ccc4c(N5CCC[C@]6(CCO6)C5)nc(OCC5(CN(C)C)CC5)nc4c3F)c12 [Compound 15a] | –
– | 98.5 | 13.3 | 37.4 | – | – | – | 30.8 | – | – | CCc1c(F)ccc2cc(O)cc(-c3ncc4c(N5CCC[C@]6(CCO6)C5)nc(OCC(C)(C)CN(C)C)nc4c3F)c12 [Compound 26a] | 4.5
– | 40.5 | 12.7 | 24.8 | – | – | – | 32 | – | – | CCc1c(F)ccc2cc(O)cc(-c3ncc4c(N5CCC[C@]6(CCO6)C5)nc(OCC5(CN(CC)CC)CC5)nc4c3F)c12 [Compound 27a] | 3.07
– | 25.1 | 4.3 | 14.7 | 410 | 181 | 1040 | 25 | – | – | CCc1c(F)ccc2cc(O)cc(-c3ncc4c(N5CCC[C@]6(CCO6)C5)nc(OCC5(CN6CCC(F)CC6)CC5)nc4c3F)c12 [Compound 29a] | 2.3
– | 23.7 | 3.1 | 13.7 | 29.2 | 26.3 | 255 | 21.6 | – | – | CCc1c(F)ccc2cc(O)cc(-c3ncc4c(N5CCC[C@]6(CCO6)C5)nc(OCC5(CN(C)C)CC5)nc4c3F)c12 [Compound 34a] | 1.4
– | – | – | – | 311 | 124 | 2270 | – | – | – | CCc1c(F)ccc2cc(O)cc(-c3ncc4c(N5CCC[C@]6(CCO6)C5)nc(OC[C@@]56CCCN5C[C@H](F)C6)nc4c3F)c12 [Compound 68] | –
– | – | 10.7 | – | 51.1 | 32.4 | 361 | – | – | – | CCc1c(F)ccc2cc(O)cc(-c3ncc4c(N5CCCC6(CCO6)C5)nc(OCC5(CN(C)C)CC5)nc4c3F)c12 (stereo not shown) [Compound 73] | –
